In US10322032B2, “Absorbent article comprising a fragrance or odor control composition” (The Procter & Gamble Company, priority 2013, dated 2019):

Columns and labels:
[1] = log P, n-octanol/water partition coefficient (EPA OPPTS 830.7550 shake flask method); assay type: physicochemical; settings: partitioning between octanol and water; for logP: n-octanol/water
Text: The use of log P values is well known in the chemical arts as representing the relative affinity that a material has for partitioning between octanol and water, so that a material that partitions more readily into octanol would tend to be more lipophillic and have a higher log P value than a material that partitions less readily into octanol. […] 1996, under the title “Product Properties Test Guidelines—OPPTS 830.7550 Partition Coefficient (n-Octanol/Water), Shake flask method.” which description is incorporated herein by reference. In following this EPA method in all instances where a recommended procedure is described (such as number of rotations of the shaker) the recommended procedure should be followed. For the analytical determination of the substance in the two phases a skilled person will know what analytical method to use, gas chromatography (GC) can be preferably used, while HPLC can be used in case GC is not suitable.

[2] = Kovats Retention Index by gas chromatography on DB-5 column against n-alkane standards; assay type: physicochemical; settings: GC, non-isothermal, C8-C22 n-alkane standards
Text: Kovats Index as it is known in the art, is defined as the selective retention of perfume raw materials (PRMs) onto chromatographic columns based on the retention volume of the substance with respect to that to a homologous series of n-alkane standards.
The Kovats Index in the present application can be experimentally derived using an Agilent Technologies 6890 gas chromatogram with Flame Ionization Detector (FID), or equivalent using a DB-5 (5% phenyl-methylpolysiloxane) column 30 m×0.25 mm i.d., with a 0.25 micron film thickness available from Agilent Technologies. Chromatographic conditions are 1 mL/min of helium carrier with constant flow programming, a temperature program of 50° C. to 300° C. at […] temperature 350° C., split injection at 300° C. Different chromatographic conditions may be required to achieve separation of the analytes of interest and can be readily adjusted by one skilled in the art. A linear alkane hydrocarbon standard mix (C8-C22 available from Aldrich Chemical Company or equivalent) is injected and the retention time for each component is recorded. The test sample (appropriately diluted in a suitable solvent) is injected under the same conditions, and the retention time for each component of interest is recorded. The Kovats Index under non-isothermal conditions is calculated for each component of interest in the test sample using the equation: KI=100n+100[(tsubstance−tn)/(tn+1−tn)] Where: • t=the uncorrected retention time of a peak • unknown=the peak of interest • n=the number of carbon atoms in the smaller alkane whose peak is adjacent to the peak of interest

| Structure (SMILES) | Log P [1] | KI (Kovats Retention Index) [2] | logP [1] |
| --- | --- | --- | --- |
| O=C1CCCCCCCCC/C=C/CCCO1 [Habanolide] | 4.32 | 1862.9 |  |
| O=C1CCCCC/C=C/CCCCCCCCO1 [trans-ambrettolide] | 4.64 | 1961.1 |  |
| CCCCC(CC)COC(=O)c1ccccc1O (stereo not shown) [2-Ethylhexyl salicylate] |  | 1889.5 | 4.92 |
| O=C1CCCCCCCCCCCCCCO1 [Exaltolide] |  | 1882 | 4.81 |
| CCC(=O)OCC(C)(C)OC(C)C1CCCC(C)(C)C1 (stereo not shown) [Helvetolide] | 5.56 | 1773 |  |
| O=C(OC1CCCCC1)c1ccccc1O [Cyclohexyl salicylate] |  | 1821 | 4.15 |
| CCCCCOC(=O)c1ccccc1O [amyl salicylate] |  | 1668.8 | 4.09 |
| CCCCCCOC(=O)c1ccccc1O [n-Hexyl salicylate] |  | 1765.1 | 4.58 |

Next, values leading:

| Log P [1] | KI (Kovats Retention Index) [2] | logP [1] | Structure (SMILES) |
| --- | --- | --- | --- |
|  | 1944.5 | 4.06 | Cc1ccc(OC(=O)c2ccccc2O)cc1 [p-Cresyl salicylate] |
|  | 1572.9 | 3.58 | CCCCOC(=O)c1ccccc1O [Butyl salicylate] |
|  | 1920.3 | 3.56 | O=C(OCc1ccccc1)c1ccccc1O [Benzyl salicylate] |
|  | 1851.1 | 3.49 | O=C(Oc1ccccc1)c1ccccc1O [Phenyl salicylate] |
|  | 1655.3 | 3.05 | CC(C)=CCOC(=O)c1ccccc1O [Prenyl salicylate] |
|  | 1616.4 | 3.74 | CC(C)CCOC(=O)c1ccccc1O [Isoamyl salicylate] |
